# In ChEMBL document CHEMBL3045223, “Synthesis, nematicidal and antimicrobial properties of Bis-[4-methoxy-3-[3-(4-fluorophenyl)-6-(4-methylphenyl)-2(aryl)-tetrahydro-2H-pyrazolo[3,4-d]thiazol-5-yl]phenyl]methanes” (2009):
# The source made the active and inactive calls. The rule behind the calls is not given here.
# System: Klebsiella aerogenes
# Assay: Antibacterial activity against Enterobacter aerogenes MTCC 39 assessed as inhibition zones at 300 ug/disk at 37 degC for 24 hr
# Type: functional
# Conditions: MTCC 39, 24 h, read-out: IZ
row,Compound,zone of inhibition at 300 µg/disc [mm]
1,COc1ccc(Cc2ccc(OC)c(C3SC4C(=NN(C(C)C)C4c4ccc(F)cc4)N3c3ccc(Cl)cc3)c2)cc1C1SC2C(=NN(C(C)C)C2c2ccc(F)cc2)N1c1ccc(Cl)cc1 (configuration not stated),20

# System: Trichophyton mentagrophytes
# Assay: Antifungal activity against Trichophyton mentagrophytes IFO 40996 assessed as growth inhibition at 37 degC for 48 hr
# Type: functional
# Conditions: IFO 40996, 48 h
Compound,MBC [µg/mL],MIC [µg/mL]
COc1ccc(Cc2ccc(OC)c(C3SC4C(=NN(C(C)C)C4c4ccc(F)cc4)N3c3ccc(Cl)cc3)c2)cc1C1SC2C(=NN(C(C)C)C2c2ccc(F)cc2)N1c1ccc(Cl)cc1 (configuration not stated),50,25

# System: Pseudomonas aeruginosa
# Assay: Antibacterial activity against Pseudomonas aeruginosa MTCC 741 assessed as inhibition zones at 300 ug/disk at 37 degC for 24 hr
# Type: functional
# Conditions: MTCC 741, 24 h, read-out: IZ
row,Compound,zone of inhibition at 300 µg/disc [mm]
1,COc1ccc(Cc2ccc(OC)c(C3SC4C(=NN(C(C)C)C4c4ccc(F)cc4)N3c3ccc(Cl)cc3)c2)cc1C1SC2C(=NN(C(C)C)C2c2ccc(F)cc2)N1c1ccc(Cl)cc1 (configuration not stated),13

# System: Trichophyton rubrum
# Assay: Antifungal activity against Trichophyton rubrum IFO 9185 assessed as growth inhibition at 300 ug/disk at 37 degC for 48 hr
# Type: functional
# Conditions: IFO 9185, 48 h, read-out: IZ
row,Compound,zone of inhibition at 300 µg/disc [mm]
1,COc1ccc(Cc2ccc(OC)c(C3SC4C(=NN(C(C)C)C4c4ccc(F)cc4)N3c3ccc(Cl)cc3)c2)cc1C1SC2C(=NN(C(C)C)C2c2ccc(F)cc2)N1c1ccc(Cl)cc1 (configuration not stated),11

# System: Lysinibacillus sphaericus
# Assay: Antibacterial activity against Lysinibacillus sphaericus MTCC 11 assessed as growth arrest at 37 degC for 24 hr
# Type: functional
# Conditions: MTCC 11, 24 h
Compound,MBC [µg/mL],MIC [µg/mL]
COc1ccc(Cc2ccc(OC)c(C3SC4C(=NN(C(C)C)C4c4ccc(F)cc4)N3c3ccc(Cl)cc3)c2)cc1C1SC2C(=NN(C(C)C)C2c2ccc(F)cc2)N1c1ccc(Cl)cc1 (configuration not stated),50,25

# System: Chromobacterium violaceum
# Assay: Antibacterial activity against Chromobacterium violaceum MTCC 2656 assessed as inhibition zones at 300 ug/disk at 37 degC for 24 hr
# Type: functional
# Conditions: MTCC 2656, 24 h, read-out: IZ
row,Compound,zone of inhibition at 300 µg/disc [mm]
1,COc1ccc(Cc2ccc(OC)c(C3SC4C(=NN(C(C)C)C4c4ccc(F)cc4)N3c3ccc(Cl)cc3)c2)cc1C1SC2C(=NN(C(C)C)C2c2ccc(F)cc2)N1c1ccc(Cl)cc1 (configuration not stated),16

# System: Pseudomonas aeruginosa
# Assay: Antibacterial activity against Pseudomonas aeruginosa MTCC 741 assessed as growth arrest at 37 degC for 24 hr
# Type: functional
# Conditions: MTCC 741, 24 h
Compound,MBC [µg/mL],MIC [µg/mL]
COc1ccc(Cc2ccc(OC)c(C3SC4C(=NN(C(C)C)C4c4ccc(F)cc4)N3c3ccc(Cl)cc3)c2)cc1C1SC2C(=NN(C(C)C)C2c2ccc(F)cc2)N1c1ccc(Cl)cc1 (configuration not stated),25,25

# System: Candida albicans
# Assay: Antifungal activity against Candida albicans ATCC 10231 assessed as growth inhibition at 37 degC for 48 hr
# Type: functional
# Conditions: ATCC 10231, 48 h
Compound,MBC [µg/mL],MIC [µg/mL]
COc1ccc(Cc2ccc(OC)c(C3SC4C(=NN(C(C)C)C4c4ccc(F)cc4)N3c3ccc(Cl)cc3)c2)cc1C1SC2C(=NN(C(C)C)C2c2ccc(F)cc2)N1c1ccc(Cl)cc1 (configuration not stated),25,12.5

# System: Bacillus subtilis
# Assay: Antibacterial activity against Bacillus subtilis MTCC 441 assessed as inhibition zones at 300 ug/disk at 37 degC for 24 hr
# Type: functional
# Conditions: MTCC 441, 24 h, read-out: IZ
row,Compound,zone of inhibition at 300 µg/disc [mm]
1,COc1ccc(Cc2ccc(OC)c(C3SC4C(=NN(C(C)C)C4c4ccc(F)cc4)N3c3ccc(Cl)cc3)c2)cc1C1SC2C(=NN(C(C)C)C2c2ccc(F)cc2)N1c1ccc(Cl)cc1 (configuration not stated),12

# System: Candida albicans
# Assay: Antifungal activity against Candida albicans ATCC 10231 assessed as growth inhibition at 300 ug/disk at 37 degC for 48 hr
# Type: functional
# Conditions: ATCC 10231, 48 h, read-out: IZ
row,Compound,zone of inhibition at 300 µg/disc [mm]
1,COc1ccc(Cc2ccc(OC)c(C3SC4C(=NN(C(C)C)C4c4ccc(F)cc4)N3c3ccc(Cl)cc3)c2)cc1C1SC2C(=NN(C(C)C)C2c2ccc(F)cc2)N1c1ccc(Cl)cc1 (configuration not stated),10

# System: Trichophyton rubrum
# Assay: Antifungal activity against Trichophyton rubrum IFO 9185 assessed as growth inhibition at 37 degC for 48 hr
# Type: functional
# Conditions: not given
Compound,MBC,MIC
COc1ccc(Cc2ccc(OC)c(C3SC4C(=NN(C(C)C)C4c4ccc(F)cc4)N3c3ccc(Cl)cc3)c2)cc1C1SC2C(=NN(C(C)C)C2c2ccc(F)cc2)N1c1ccc(Cl)cc1 (configuration not stated),inactive,inactive

# System: Staphylococcus aureus
# Assay: Antibacterial activity against Staphylococcus aureus MTCC 96 assessed as growth arrest at 37 degC for 24 hr
# Type: functional
# Conditions: MTCC 96, 24 h
Compound,MBC [µg/mL],MIC [µg/mL]
COc1ccc(Cc2ccc(OC)c(C3SC4C(=NN(C(C)C)C4c4ccc(F)cc4)N3c3ccc(Cl)cc3)c2)cc1C1SC2C(=NN(C(C)C)C2c2ccc(F)cc2)N1c1ccc(Cl)cc1 (configuration not stated),25,12.5

# System: Aspergillus fumigatus
# Assay: Antifungal activity against Aspergillus fumigatus HIC 6094 assessed as growth inhibition at 37 degC for 48 hr
# Type: functional
# Conditions: HIC 6094, 48 h
Compound,MBC [µg/mL],MIC [µg/mL]
COc1ccc(Cc2ccc(OC)c(C3SC4C(=NN(C(C)C)C4c4ccc(F)cc4)N3c3ccc(Cl)cc3)c2)cc1C1SC2C(=NN(C(C)C)C2c2ccc(F)cc2)N1c1ccc(Cl)cc1 (configuration not stated),25,25

# System: Lysinibacillus sphaericus
# Assay: Antibacterial activity against Lysinibacillus sphaericus MTCC 11 assessed as inhibition zones at 300 ug/disk at 37 degC for 24 hr
# Type: functional
# Conditions: MTCC 11, 24 h, read-out: IZ
row,Compound,zone of inhibition at 300 µg/disc [mm]
1,COc1ccc(Cc2ccc(OC)c(C3SC4C(=NN(C(C)C)C4c4ccc(F)cc4)N3c3ccc(Cl)cc3)c2)cc1C1SC2C(=NN(C(C)C)C2c2ccc(F)cc2)N1c1ccc(Cl)cc1 (configuration not stated),11

# System: Klebsiella aerogenes
# Assay: Antibacterial activity against Enterobacter aerogenes MTCC 39 assessed as growth arrest at 37 degC for 24 hr
# Type: functional
# Conditions: MTCC 39, 24 h
Compound,MBC [µg/mL],MIC [µg/mL]
COc1ccc(Cc2ccc(OC)c(C3SC4C(=NN(C(C)C)C4c4ccc(F)cc4)N3c3ccc(Cl)cc3)c2)cc1C1SC2C(=NN(C(C)C)C2c2ccc(F)cc2)N1c1ccc(Cl)cc1 (configuration not stated),50,25

# System: Trichophyton mentagrophytes
# Assay: Antifungal activity against Trichophyton mentagrophytes IFO 40996 assessed as growth inhibition at 300 ug/disc at 37 degC for 48 hr
# Type: functional
# Conditions: IFO 40996, 48 h, read-out: IZ
row,Compound,zone of inhibition at 300 µg/disc [mm]
1,COc1ccc(Cc2ccc(OC)c(C3SC4C(=NN(C(C)C)C4c4ccc(F)cc4)N3c3ccc(Cl)cc3)c2)cc1C1SC2C(=NN(C(C)C)C2c2ccc(F)cc2)N1c1ccc(Cl)cc1 (configuration not stated),12

# System: Aspergillus fumigatus
# Assay: Antifungal activity against Aspergillus fumigatus HIC 6094 assessed as growth inhibition at 300 ug/disc at 37 degC for 48 hr
# Type: functional
# Conditions: not given
row,Compound,inhibition zone (IZ)
1,COc1ccc(Cc2ccc(OC)c(C3SC4C(=NN(C(C)C)C4c4ccc(F)cc4)N3c3ccc(Cl)cc3)c2)cc1C1SC2C(=NN(C(C)C)C2c2ccc(F)cc2)N1c1ccc(Cl)cc1 (configuration not stated),inactive

# System: Staphylococcus aureus
# Assay: Antibacterial activity against Staphylococcus aureus MTCC 96 assessed as inhibition zones at 300 ug/disc at 37 degC for 24 hr
# Type: functional
# Conditions: MTCC 96, 24 h, read-out: IZ
row,Compound,zone of inhibition at 300 µg/disc [mm]
1,COc1ccc(Cc2ccc(OC)c(C3SC4C(=NN(C(C)C)C4c4ccc(F)cc4)N3c3ccc(Cl)cc3)c2)cc1C1SC2C(=NN(C(C)C)C2c2ccc(F)cc2)N1c1ccc(Cl)cc1 (configuration not stated),13

# System: Bacillus subtilis
# Assay: Antibacterial activity against Bacillus subtilis MTCC 441 assessed as growth arrest at 37 degC for 24 hr
# Type: functional
# Conditions: MTCC 441, 24 h
Compound,MBC [µg/mL],MIC [µg/mL]
COc1ccc(Cc2ccc(OC)c(C3SC4C(=NN(C(C)C)C4c4ccc(F)cc4)N3c3ccc(Cl)cc3)c2)cc1C1SC2C(=NN(C(C)C)C2c2ccc(F)cc2)N1c1ccc(Cl)cc1 (configuration not stated),25,12.5

# System: Caenorhabditis elegans
# Assay: Nematicidal activity against Caenorhabditis elegans assessed as immobility
# Type: functional
# Conditions: read-out: LD50 (the source's name)
row,Compound,LC50 [µg/mL]
1,COc1ccc(Cc2ccc(OC)c(C3SC4C(=NN(C(C)C)C4c4ccc(F)cc4)N3c3ccc(Cl)cc3)c2)cc1C1SC2C(=NN(C(C)C)C2c2ccc(F)cc2)N1c1ccc(Cl)cc1 (configuration not stated),670

# System: Chromobacterium violaceum
# Assay: Antibacterial activity against Chromobacterium violaceum MTCC 2656 assessed as growth arrest at 37 degC for 24 hr
# Type: functional
# Conditions: MTCC 2656, 24 h
Compound,MBC [µg/mL],MIC [µg/mL]
COc1ccc(Cc2ccc(OC)c(C3SC4C(=NN(C(C)C)C4c4ccc(F)cc4)N3c3ccc(Cl)cc3)c2)cc1C1SC2C(=NN(C(C)C)C2c2ccc(F)cc2)N1c1ccc(Cl)cc1 (configuration not stated),25,12.5

# System: Ditylenchus myceliophagus
# Assay: Nematicidal activity against Ditylenchus myceliophagus assessed as immobility
# Type: functional
# Conditions: read-out: LD50 (the source's name)
row,Compound,LC50 [µg/mL]
1,COc1ccc(Cc2ccc(OC)c(C3SC4C(=NN(C(C)C)C4c4ccc(F)cc4)N3c3ccc(Cl)cc3)c2)cc1C1SC2C(=NN(C(C)C)C2c2ccc(F)cc2)N1c1ccc(Cl)cc1 (configuration not stated),520
